Experimental findings from patent publication US20260022142A1, “MACROCYCLIC IMMUNOMODULATORS” (Bristol-Myers Squibb Company, priority 2022, published 2026) are described below.

pIC50: −log10 of the molar value. Bridge positions count the residues as written; N and C are the ends. Square brackets hold non-standard residues; d marks the D form. Peptide text beside a SMILES is read from it. * marks the point of attachment. Bip = N[C@@H](Cc1ccc(-c2ccccc2)cc1)C(=O)O; 4Pal = N[C@@H](Cc1ccncc1)C(=O)O; Carboxymethyl = O=C(O)C*; Orn = NCCC[C@H](N)C(=O)O; Pra = C#CC[C@H](N)C(=O)O; Aun = NCCCCCCCCCCC(=O)O; Dab = NCC[C@H](N)C(=O)O; Dap = NC[C@H](N)C(=O)O; AEEA = NCCOCCOCC(=O)O

This test deals with T1, PD-1/PD-L1 interaction (PE-labeled human PD-L1-Ig binding to Jurkat cell line over-expressing human PD-1) (Homo sapiens, UniProt Q15116).
T1 construct: expressed in transfected cells; host or cells: Jurkat
T1 sequence (Q15116 25-288): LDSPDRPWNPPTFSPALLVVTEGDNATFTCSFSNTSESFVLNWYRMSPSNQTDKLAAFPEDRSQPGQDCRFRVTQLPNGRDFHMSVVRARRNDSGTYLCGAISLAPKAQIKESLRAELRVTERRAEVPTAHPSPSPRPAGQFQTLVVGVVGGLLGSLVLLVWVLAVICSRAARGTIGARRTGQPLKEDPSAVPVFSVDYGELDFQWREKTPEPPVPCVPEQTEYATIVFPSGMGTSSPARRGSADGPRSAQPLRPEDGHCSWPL
The test can be described thus: Jurkat-PD-1 Cell Binding High-Content Screening Assay (CBA). It is filed as cell-based. The following applies: Jurkat cell line over-expressing human PD-1; PE-labeled PD-L1-Ig 20 nM final; read-out: Jurkat hPD1-PDL1 IC50. An outline of the steps: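 Jurkat cells stably over-expressing human PD-1 were seeded in DMEM with 10% fetal calf serum and pre-incubated with compound for 2 h at 37° C. PE-labeled human PD-L1-Ig was then added at 20 nM final for 1 hour, after which cells were fixed with paraformaldehyde, Hoechst-stained and imaged by high-content microscopy.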
On to `C#CC[C@H](NC(=O)COCCOCCNC(=O)[C@H](CCN)NC(=O)[C@@H]1CSCC(=O)N[C@@H](Cc2ccncc2)C(=O)N[C@@H](Cc2ccc(OCC(=O)O)cc2)C(=O)N[C@@H](CC(=O)O)C(=O)N[C@@H](Cc2c[nH]c3ccccc23)C(=O)N[C@@H](C(C)C)C(=O)N[C@@H](Cc2ccc(-c3ccccc3)cc2)C(=O)N[C@@H]([C@@H](C)CC)C(=O)N[C@@H](CCCN)C(=O)N[C@H](CC(C)C)C(=O)N[C@@H](CCN)C(=O)N[C@@H](CC(C)C)C(=O)N[C@@H](C(C)C)C(=O)N[C@@H]([C@@H](C)O)C(=O)N1)C(=O)N[C@@H](CCCNC(=N)N)C(=O)NCCCCCCCCCCC(=O)O` [Compound 1197] ({CH2CO}-[4Pal]Y(Carboxymethyl)DWV[Bip]I[Orn][dL][Dab]LVTC[Dab][AEEA][Pra]R[Aun]-OH; thioether N-14), for which the pIC50 (as a rule, −log10 of the IC50, conventionally taken in molar units) is 7.83.

With `C#CC[C@H](NC(=O)COCCOCCNC(=O)[C@H](CCN)NC(=O)[C@@H]1CSCC(=O)N[C@@H](Cc2ccncc2)C(=O)N[C@@H](Cc2ccc(OCC(=O)O)cc2)C(=O)N[C@@H](CC(=O)O)C(=O)N[C@@H](Cc2c[nH]c3ccccc23)C(=O)N[C@@H](C(C)C)C(=O)N[C@@H](Cc2ccc(-c3ccccc3)cc2)C(=O)N[C@@H]([C@@H](C)CC)C(=O)N[C@@H](CCCN)C(=O)N[C@H](CC(C)C)C(=O)N[C@@H](CCN)C(=O)N[C@@H](CC(C)C)C(=O)N[C@@H](C(C)C)C(=O)N[C@@H]([C@@H](C)O)C(=O)N1)C(=O)N[C@@H](Cc1c[nH]cn1)C(=O)NCCCCCCCCCCC(=O)O` [Compound 1198] ({CH2CO}-[4Pal]Y(Carboxymethyl)DWV[Bip]I[Orn][dL][Dab]LVTC[Dab][AEEA][Pra]H[Aun]-OH; thioether N-14), the pIC50 is 7.82.

With `C#CC[C@H](NC(=O)COCCOCCNC(=O)[C@H](CCCN)NC(=O)[C@@H]1CSCC(=O)N[C@@H](Cc2ccncc2)C(=O)N[C@@H](Cc2ccc(OCC(=O)O)cc2)C(=O)N[C@@H](CC(=O)O)C(=O)N[C@@H](Cc2c[nH]c3ccccc23)C(=O)N[C@@H](C(C)C)C(=O)N[C@@H](Cc2ccc(-c3ccccc3)cc2)C(=O)N[C@@H]([C@@H](C)CC)C(=O)N[C@@H](CCCN)C(=O)N[C@H](CC(C)C)C(=O)N[C@@H](CCN)C(=O)N[C@@H](CC(C)C)C(=O)N[C@@H](C(C)C)C(=O)N[C@@H]([C@@H](C)O)C(=O)N1)C(=O)N[C@@H](CN)C(=O)NCCCCCCCCCCC(=O)O` [Compound 1199] ({CH2CO}-[4Pal]Y(Carboxymethyl)DWV[Bip]I[Orn][dL][Dab]LVTC[Orn][AEEA][Pra][Dap][Aun]-OH; thioether N-14), the pIC50 is 7.88.

As for `C#CC[C@H](NC(=O)COCCOCCNC(=O)[C@H](CCCN)NC(=O)[C@@H]1CSCC(=O)N[C@@H](Cc2ccncc2)C(=O)N[C@@H](Cc2ccc(OCC(=O)O)cc2)C(=O)N[C@@H](CC(=O)O)C(=O)N[C@@H](Cc2c[nH]c3ccccc23)C(=O)N[C@@H](C(C)C)C(=O)N[C@@H](Cc2ccc(-c3ccccc3)cc2)C(=O)N[C@@H]([C@@H](C)CC)C(=O)N[C@@H](CCCN)C(=O)N[C@H](CC(C)C)C(=O)N[C@@H](CCN)C(=O)N[C@@H](CC(C)C)C(=O)N[C@@H](C(C)C)C(=O)N[C@@H]([C@@H](C)O)C(=O)N1)C(=O)N[C@@H](CCN)C(=O)NCCCCCCCCCCC(=O)O` [Compound 1200] ({CH2CO}-[4Pal]Y(Carboxymethyl)DWV[Bip]I[Orn][dL][Dab]LVTC[Orn][AEEA][Pra][Dab][Aun]-OH; thioether N-14), the pIC50 was 7.81.
